From patent US12709645B2, “Targeting gene amplification in cancer using triplex formation as a therapeutic strategy” (Yale University, priority 2018, dated 2026)

How the values were obtained:
BT474 cells [1] = assay: Neutral comet assay in BT474 cells; type: cell-based, human; conditions: 24 hours post-treatment
Experimental: (§1) Cells were seeded in six-well plates at a density of 2-4×10^5 cells per well the day before transfection. Cells were transfected with 2 μg of HER2-targeted TFO or MIX24 using Oligofectamine (Invitrogen) or Dharmafect-1 (Dharmacon) transfection reagent. Transfection was performed as per manufacturer's instructions. siRNA directed against p53, XPD and non-target controls (ON-Target plus SMARTpool reagents; (Dharmacon) were transfected into BT474 cells using Dharmafect-1 transfection reagent (Dharmacon) according to the manufacturers instructions. Western blot analysis was used to confirm knockdown of protein.
(§2) Comet Assay. Neutral cornet assays were performed 24 h post TFO-transfection as per the manufacturers instructions (Trevigen) with the adjustment of 3.5×10^5 cells/ml for each single cell suspension and 30 minutes electrophoresis. Comets were visualized using an Axiovert 200 microscope and analyzed with Autocomet software. Approximately 100-200 comets were analyzed per experiment. Results were expressed as mean tail moment.

[2] = system: BT474 human breast cancer tumors; assay: BT474 breast cancer subcutaneous xenograft model; type: in vivo, athymic nude mice; conditions: for tumor growth relative to controls / tumor tripling time post-initial dose: 20 mg/kg IP, 3 doses over 7 days
Experimental: Six to seven-week old female BALB/c athymic, ovariectomized nude mice (Harlan Sprague-Dawley) were implanted with 0.72 mg, 60-day release 17β-estradiol pellets (Innovative Research). […] Tumor volumes in each group were then monitored and mice were sacrificed when tumor volumes reached 1000 mm^3. Error bars represent standard error of the mean. Tumor tripling time was calculated as the time required for tumors to increase in volume […] over baseline (defined as tumor volume before administration of dose on first day of treatment). Harvested tumors were fixed in 10% neutral buffered formalin and processed by Yale Pathology Tissue Services for H&E, Caspase 3, HER2, and Ki67. Images were taken at 4× magnification.

PE01 and SKOV3 cells [3] = assay: Neutral comet assay in ovarian cancer cells; type: cell-based, human
Experimental: as §2

Chk1 = assay: Western blot of DNA damage response protein phosphorylation; type: cell-based, human; conditions: HER2-amplified vs normal copy number cells
Experimental: (§3) Western blotting. Whole cell lysates were prepared from floating and adherent cells using RIPA buffer according to standard protocols. Total protein (30-50 μg per sample) was resolved by SDS-PAGE. Proteins were detected by a standard immunoblot protocol using the following primary antibodies: cleaved PARP, cleaved caspase 3, γH2AX, XPD, p53, HER2, pHER2 ([…]), HER3, pHER3 (Y1289), HER4, pHER4 (Y1284), EGFR, pEGFR (Y1068), Chk1, pChk1(S345), pChk2 (T68), and Chk2 (Cell Signaling Technology); pH2AX (tyrosine 142; EMD Millipore); tubulin (clone B-512; Sigma), and GAPDH-HRP (Proteintech). Each experiment was repeated with independent sample preparation a minimum of three times, and representative western blots are shown.

BT474 cells [4] = assay: Flow cytometry of phosphorylated ATM; type: cell-based, human; conditions: 24 h
Experimental: Flow Cytometry. BT474 cells were collected 24 h following treatment with either MIX24 HER2-205. After washing with PBS, cells were incubated with 1% paraformaldehyde for 15 minutes on ice. Cells were then fixed with cold 70% ethanol at −20° C. for 2 h or kept for up to 2 weeks until further analysis. Cells were centrifuged and rinsed with PBS, blocked with PBST buffer (1% w/v bovine serum albumin and 0.2% v/v Triton X-100 in PBS) for 15 minutes on ice, followed by another PBS rinse. Cells were first incubated with anti-phospho-ATM (S1981, EMD Millipore) in PBST at 1:100 dilution for 1 h at room temperature. Cells were rinsed with PBST and incubated with anti-rabbit IgG Fab2 Alexa 488 (Molecular Probes) at 1:100 dilution at room temperature for 1 h, and then rinsed with PBST. Acquisition of labeled cells and analysis of data was completed using a flow cytometer (FACS Calibur) and FlowJo software respectively.

PE01 and SKOV3 cells [5] = assay: Monolayer growth survival assay in ovarian cancer cells; type: cell-based, human; conditions: 72 h after treatment
Experimental: Survival Assay. Cell survival seas assayed by visualization of monolayer growth. Briefly, cells were plated at a defined density in 6 or 12-well dishes and treated with either transfection reagent alone (mock), MIX24, or HER2-205 as previously described. Monolayers were visualized by staining cells with crystal violet 72 h post-treatment.

HER2 [6] = assay: HER2 gene expression by RT-PCR; type: cell-based, human; conditions: non-amplified and amplified breast cancer cell lines
Experimental: Gene Expression. RNA was extracted from snap-frozen cells using the RNeasy Kit (Qiagen) per the manufacturers protocol. cDNA synthesis was carried out with 10 μg of RNA via reverse transcription reactions and the High-Capacity cDNA Reverse Transcription Kit (ThermoFisher Scientific). cDNA (10 ng) was then combined with TaqMan Universal PCR master mix (20 μl) (Applied Biosystem) and primers specific to HER2 (HER2, Hs01001580_m1, ThermoFisher Scientific) or the internal control, β-actin (Hs99999903_m1, ThermoFisher Scientific). qRT-PCR was performed in 96-well optical plates in triplicate for each sample. Briefly, reactions were performed at 50° C. for 2 minutes, followed by 95° C. for 10 minutes. Amplification of the target or control gene was carried out with 40 cycles of the two-step reaction, which included 95° C. for 15 seconds and 1 minute at 60° C. β-actin expression levels were used to normalize the difference between cDNA levels in different samples. Relative expression levels were calculated using the 2(-Delta Delta C(T)) method.

HER2-positive cell lines = assay: Annexin-V apoptosis analysis in breast cancer cell lines; type: cell-based, human; conditions: 24 h post TFO-treatment
Experimental: (§4) Cell Lines and Transfections. Human breast cancer cell lines were obtained from ATCC and routinely tested for mycoplasma. The human cell lines, MDA-MB-453, SKBR3, and BT474 are HER2-amplified breast cancer cell lines. BT20 and MCF7 cells are non-amplified breast cancer cell lines. MCF-10A is a non-tumorigenic breast epithelial cell line. PEO1 and SKOV3 are human ovarian cancer cell lines with HER2 gene amplification.
(§5) Apoptosis analysis. Cells (2−4×10^5) were seeded in six-well plates 24 h prior to treatment with MIX24, HER2-1 or HER2-205 (2 μg). Post-treatment analysis was performed using the Annexin V-FITC/PI apoptosis detection kit (BD Pharmingen) according to the manufacturers protocol. Apoptotic frequency was calculated as the combined percentage of early and late apoptotic cells. Data analysis was performed using Flow-Jo software.

PE01 and SKOV3 cells [7] = assay: Apoptosis in ovarian cancer cells (Annexin V, cleaved PARP); type: cell-based, human; conditions: Annexin V 48 h post-treatment
Experimental: as §3, §5

PE01 and SKOV3 cells [8] = assay: Immunofluorescence of γH2AX foci in ovarian cancer cells; type: cell-based, human; conditions: 24 h
Experimental: (§6) Immunofluorescence. Cells were seeded onto UV-irradiated coverslips and were treated for 24 h with HER2-205, MIX24, or a mock transfection. Cells were processed 24 h post-transfection, fixed with 4% formaldehyde and then incubated with ice-cold 100% methanol for 20 minutes followed by a methanol and acetone solution (1:1) for 20 minutes each at −20° C. After washing with PBS, cells were blocked with blocking buffer (4% BSA, 0.2% Triton X-100 in PBS) for 30 minutes and then incubated overnight with the following primary antibodies: γH2AX (1:500; Cell Signaling or Millipore) and 53BP1 (1:100; Santa Cruz) in blocking buffer at 4° C. After three washes, cells were incubated with secondary antibodies Alexa 488 F(ab′)2 fragment goat anti-rabbit IgG or Alexa 568 F(ab′)2 fragment goat anti-mouse IgG (1:1000; Molecular Probes) for 1 h at room temperature. Cells were then mounted on microscope glass slides with anti-fade mounting media containing DAPI (Life Technologies), and pictures were taken with a Leica SP5 microscope. Immunofluorescence experiments were repeated for validation.

BT474 cells [9] = assay: Immunofluorescence of γH2AX and 53BP1 foci in BT474 cells; type: cell-based, human
Experimental: as §6

HER2 [10] = assay: Western blot of total HER2 protein and phosphorylation levels; type: cell-based, human; conditions: HER2-positive cells compared to control samples
Experimental: as §3

BT474 cells [11] = assay: Apoptosis after XPD knockdown in BT474 cells (Western blot); type: cell-based, human; conditions: siRNA XPD knockdown
Experimental: as §1, §3

[12] = system: SKOV3 ovarian cancer xenografts; assay: SKOV3 ovarian cancer subcutaneous xenograft model; conditions: HER2-205 20 mg/kg vs cisplatin 10 mg/kg, IP
Experimental: To establish an ovarian cancer model, female BALB/c athymic nude mice were injected subcutaneously in the flank with 5×10^6 SKOV3 cells suspended in 100 μl equal volume of media and Matrigel. Mice bearing a tumor of about 100 mm^3 in volume were randomly divided into three treatment groups: vehicle (PBS), n=5; HER2-targeted TFO, HER2-205, n=5; and cisplatin, n=7. […] Tumor volumes were monitored and tumor tripling times were calculated as described above.

[13] = system: cell lines containing multiple copies of the HER2 gene; assay: Neutral comet assay in breast cancer cell lines; type: cell-based, human; conditions: 24 h after treatment
Experimental: as §4, §1
Comet Assay. […] Comets were visualized using an Axiovert 200 microscope and analyzed with Autocomet software. Approximately 100-200 comets were analyzed per experiment. Results were expressed as mean tail moment.

[14] = 24 h after single dose 20 mg/kg

## HER2-5922-2: TFO targeting intron 2 of the HER2 gene, 5′-GGGAAAGAGGAGGGGGTGAGAGGAGTGGGG-3′ (triplex-forming oligonucleotide, chemistry not given here, further chemistry not given here)
BT474 cells [1]
  DSBs as indicated by DNA tail moment: significantly, more DSBs

## HER2-40118: TFO targeting intron 19 of the HER2 gene, 5′-GGGGGAAATAGGGAGGGTGGGG-3′ (triplex-forming oligonucleotide, chemistry not given here, further chemistry not given here)
BT474 cells [1]
  DSBs as indicated by DNA tail moment: significantly, more DSBs

## MIX24: control mixed-sequence oligonucleotide, 5′-AGTCAGTCAGTCAGTCAGTCAGTC-3′ (DNA AGTCAGTCAGTCAGTCAGTCAGTC; listed as DNA, chemistry not given here) [reference compound]
[2]
  tumor growth relative to controls: no impact
  tumor tripling time post-initial dose: 16.3 ± 6.6 days

## HER2-205: TFO binding a polypurine sequence in the HER2 coding region, 5′-GAGGAGGAGTGGGAGAATGGGGGG-3′ (DNA GAGGAGGAGTGGGAGAATGGGGGG; DNA, backbone not given here)
PE01 and SKOV3 cells [3]
  DNA tail moments: increased
BT474 cells [1]
  DSBs as indicated by DNA tail moment: significantly, more DSBs
Chk1
  Chk1 phosphorylation at serine 345: observed after HER2-205 treatment in the HER2-amplified cells and not in the cells with normal HER2 gene copy numbers
BT474 cells [4]
  pATM positive cells: increase
PE01 and SKOV3 cells [5]
  cell viability (monolayer growth): reduced cell viability
HER2 [6]
  HER2 gene expression: not significantly affected
HER2-positive cell lines
  percentage of apoptotic cells (Annexin-V): higher percentage of apoptotic cells than that with HER2-1
PE01 and SKOV3 cells [7]
  apoptosis: activated apoptosis
PE01 and SKOV3 cells [8]
  γH2AX foci: increased
BT474 cells [9]; 24 h
  colocalization of γH2AX and 53BP1, percent of cells: 49%
BT474 cells [9]; 24 h post-treatment
  γH2AX and 53BP1 foci compared to MIX24: substantially increased
HER2 [10]
  total and activated HER2 levels: remain the same
[2]
  tumor growth relative to controls: suppressed tumor growth to a significantly greater degree than the controls
  tumor tripling time post-initial dose: 29 ± 5.7 days
[2]; [14]
  proliferation by Ki67 staining in tumor sections: decreased proliferation
  tumor cell apoptosis (cleaved caspase 3) in tumor sections: Tumor cell apoptosis
[2]; HER2-positive breast cancer xenografts
  reduction in tumor volumes compared to controls: 52%
BT474 cells [11]
  phosphorylation of Y142 in H2AX and activation of apoptosis: requirement for XPD
[12]; 3 doses
  survival (tumors smaller than three times baseline) compared with cisplatin: substantial survival advantage
[12]; 3 doses once per week
  average tumor volume smaller than in cisplatin-treated mice: 49%
[13]
  DSBs as indicated by DNA tail moment: significantly more DSBs
